In this experiment the target is cofilin (Homo sapiens, UniProt P23528). Put plainly: Cofilin inhibition by the compound still protected on one side (no method given). To be noted: one side of the Formula I structure still protected (TBS).
Chain of cofilin (P23528 whole entry): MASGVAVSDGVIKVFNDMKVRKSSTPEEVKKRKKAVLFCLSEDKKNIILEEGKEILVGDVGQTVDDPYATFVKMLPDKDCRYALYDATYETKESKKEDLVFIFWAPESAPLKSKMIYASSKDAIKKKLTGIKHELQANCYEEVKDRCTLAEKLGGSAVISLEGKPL

As to `CC(C)(C)c1ccc(O)c(CN(Cc2cc(C(C)(C)C)ccc2O[Si](C)(C)C(C)(C)C)C2CCC(NC(N)=O)CC2)c1` (stereo not shown) [SZ-2], the cofilin inhibition result is reported as “still works to inhibit cofilin”.

The values above are taken from patent publication US11548850B2, “Development of a cofilin inhibitor for the treatment of hemorrhagic brain injury-induced neuroinflammation” (The University of Toledo, priority 2019, dated 2023).
